Measured values published in US6930118B2, “3-Oxadiazol-5-yl-1-aminoalkyl-1h-indole derivatives” (Amrad Operations Pty. Ltd., priority 2001, dated 2005).

Key:
CB2 receptor = target: T1, CB2 receptor (Rattus norvegicus, UniProt Q9QZN9); assay: Radioligand binding assay, rat spleen membranes
T1 sequence (Q9QZN9 1-343 limits assumed): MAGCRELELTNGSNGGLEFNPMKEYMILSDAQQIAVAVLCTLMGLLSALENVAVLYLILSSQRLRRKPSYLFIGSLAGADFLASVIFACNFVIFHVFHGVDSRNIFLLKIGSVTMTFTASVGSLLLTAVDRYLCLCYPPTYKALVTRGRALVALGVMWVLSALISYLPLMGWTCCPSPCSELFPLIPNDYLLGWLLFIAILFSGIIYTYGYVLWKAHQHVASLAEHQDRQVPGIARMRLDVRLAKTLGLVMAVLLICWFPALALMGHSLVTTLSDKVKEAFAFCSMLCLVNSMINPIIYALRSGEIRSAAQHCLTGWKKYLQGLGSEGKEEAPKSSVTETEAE
Experimental: The affinity of compounds at cannabinoid receptors is routinely assessed using ligand binding assays known to those skilled in the art. Radioligand binding assays were conducted using rat cerebellum or rat spleen. The cerebellum of the rat is known to express predominantly, if not exclusively, the CB1 receptor subtype (20,21). Thus, binding constants obtained from these studies are characterised by a single affinity value, as only one receptor type is labelled. […] In contrast, biphasic binding curves in the spleen characterised by two affinity constants represent the profile of compounds showing selectivity for one receptor subtype over another. In order to determine the order of selectivity, the high and low affinity values obtained for these compounds in the spleen binding assays were compared to the single affinity estimates obtained for the cerebellum (CB1) assays.
Sprague Dawley rats (200-300 g) were killed by gassing with 80% CO2 in O2 and decapitation and the spleen excised rapidly and placed in ice-cold Tris-HCl buffer (Tris 50 mM, MgCl2 3 mM, EGTA 0.2 mM, pH 7.4). The spleen was weighed and diced using a scalpel before homogenisation in 10 volumes of Tris-HCl buffer. The homogenate was then made up to 20 volumes and centrifuged (12,600 g, 5 min, 4° C.), the supernatant was retained and centrifuged (23,800 g, 20 min, 4° C.). The pellet was resuspended in 10 volumes of buffer and assayed for protein content using the method of Bradford (Bradford, 1976) with BSA as the standard. The homogenate was then recentrifuged and the final pellet resuspended in Tris-HCl buffer at a protein concentration of 5 mg/ml and stored in 500 μl aliquots at −80° C. until used for the binding assay.
Ligand binding assays were performed in polypropylene tubes in a total volume of 1 ml containing Tris-HCl buffer, a final concentration of 1 mg/ml BSA, and varying concentrations of drugs. Tubes contained 30 μg of membrane protein and incubation was started by the addition of 100 μl of either 0.5 nM [^3H]SR141716A or 0.2 nM [^3H]WIN 55,212-2. Experiments were carried out in triplicate at 30° C. for 90 min with non-specific binding being defined as radioligand binding in the presence of 1 μM unlabelled WIN 55,212-2. Incubations were terminated by rapid filtration with a M-24 Cell Harvester (Brandel; Gaithersburg, Md., U.S.A.) using ice-cold Tris-HCl buffer containing 0.5 mg/ml BSA. Filters (Wattman GF/B) were soaked for 2 h prior to filtering in a solution of Tris-HCl buffer containing 3 mg/ml BSA and 0.5% w/w polyethyleneimine (PEI). Filters were left to dry thoroughly before placement into scintillation vials with 5 ml of scintillation cocktail (Ultima Gold LSC-cocktail; Packard Bioscience, Meriden, Conn., U.S.A.) being added. Vials were left to stand overnight before the radioactivity was determined using a Model 1409 DSA Liquid Scintillation counter (EG&E Wallac, Gaithersburg, Md., U.S.A.).
The resulting radioligand binding curves were analyzed by nonlinear regression using the program PRISM 3.0 (GraphPad Software, San Diego, Calif.) in order to derive ligand affinity estimates for the cannabinoid receptor(s).

Sprague-Dawley rats = assay: Neuropathic pain testing: L5/L6 spinal nerve ligation, tactile allodynia with von Frey hairs; format: in vivo; conditions: intraperitoneal injection, propylene glycol vehicle, rat
From the text: Production of a unilateral hind limb neuropathy in male Sprague-Dawley rats was achieved using the technique of L5 and L6 spinal nerve ligation, according to the method of Kim and Chung (1992). Animals were given one week to recover from surgery prior to testing for the development of […] pain.
The testing procedure involved the determination of tactile allodynia using von Frey hairs, which were applied sequentially to the plantar surface of the rat paw starting with 2 g of force and proceeding upwards to a maximum of 15.1 g of force or downwards to a minimum of 0.4 g force. The 15.1 g force was used to define the maximum possible effect (MPE) for this test of neuropathic pain. Once paw withdrawal occurred, the 50% withdrawal threshold was determined using the “up-down” method as published by Dixon (1980). Both hind paws were tested. Response to therapy as measured by tactile allodynia threshold was calculated using the percentage maximum possible effect (% MPE) according to the following equation: % MPE=100×([Measured value]−[Pre-treatment value])/([MPE]−[Pre-treatment value]).
Drugs were dissolved in a propylene glycol vehicle and administered via intraperitoneal injection.

CB1 receptor = target: T2, CB1 receptor (Mus musculus, UniProt P47746); assay: Mouse electrically-stimulated isolated vas deferens bioassay (MVD); format: cell-based; conditions: decrease of electrically evoked twitch force, read-out: CB1 (MVD) % inh at 1.0 μM
T2 construct: Mouse vasa deferentia were dissected with capsular connective tissue intact and set up in 20 ml organ baths; from tissue; host or cells: mouse (Swiss white) isolated vas deferens
Experimental: Functional activity of the compounds was assayed using the mouse electrically-stimulated vas deferens bioassay, a measure of CB1 receptor function (24,25). […] CB2 functionality may be investigated using assays known to those skilled in the art; for example those described in U.S. Pat. No. 6,013,648.
Swiss white mice (35-40 g) were killed by exposure to 80% CO2 in O2 and exsanguination. Mouse vasa deferentia were dissected with capsular connective tissue intact and set up in 20 ml organ baths at 37° C. in Mg^2+-free physiological salt solution. The upper (epididymal) end was attached to an isometric force transducer (Grass FTO3C) and the lower (prostatic) end tied to a fixed support between two parallel platinum field electrodes (5 mm apart, 5 mm long). The tissue was initially stretched by 0.5 g force and allowed to equilibrate 10 min. The tissues were stimulated (Grass S88 stimulator) to contract using trains of electrical field stimulation of 3 pulses (4 Hz), 0.5 ms duration, 100 V (80% maximal voltage) every 20 s for 10 min. This electrical stimulation period was applied before and after both antagonist and agonist addition. Output from the transducer amplifier was recorded on a flat bed recorder (Gould BS 272, Cleveland, Ohio, U.S.A.). All drugs were dissolved in dimethyl sulfoxide (DMSO; Sigma, St Louis, Mo., U.S.A.) and allowed to equilibrate with the tissue for 30 min before the responses to field stimulation were assessed. Drug effects were measured as the percentage decrease of the pre-drug twitch force.

T2 sequence (P47746 whole entry): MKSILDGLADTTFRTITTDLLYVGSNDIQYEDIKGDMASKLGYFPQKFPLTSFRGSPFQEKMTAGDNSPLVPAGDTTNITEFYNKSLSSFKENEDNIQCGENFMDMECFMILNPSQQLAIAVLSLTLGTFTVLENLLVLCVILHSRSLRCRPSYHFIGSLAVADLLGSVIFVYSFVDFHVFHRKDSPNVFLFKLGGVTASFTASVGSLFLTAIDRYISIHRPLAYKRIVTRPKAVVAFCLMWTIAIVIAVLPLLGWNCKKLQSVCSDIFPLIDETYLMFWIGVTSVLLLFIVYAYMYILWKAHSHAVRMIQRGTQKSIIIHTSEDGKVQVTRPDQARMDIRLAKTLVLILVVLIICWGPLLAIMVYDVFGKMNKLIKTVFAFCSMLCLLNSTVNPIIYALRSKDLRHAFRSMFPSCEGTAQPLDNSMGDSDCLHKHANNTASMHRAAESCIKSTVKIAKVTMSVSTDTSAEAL

## c1ccc(Cc2noc(-c3cn(CCN4CCCC4)c4ccccc34)n2)cc1 [Compound 1, 3-(3-Benzyl-[1,2,4]-oxadiazol-5-yl)-1-[2-(pyrrolidin-1-yl)ethyl]-1H-indole]
CB2 receptor
  IC50: 1600 nM
Sprague-Dawley rats
  antinociceptive effect in model of neuropathic pain: significant antinociceptive effect
CB1 receptor
  inhibition at 1 µM: 80%
